Read-outs that look alike come from different tables or passages of the source.
How the values were obtained:
orexin 2 receptors [1] = biological target: T1, orexin 2 receptors (Homo sapiens, UniProt O43614); assay: in vitro binding: displacement of radio-iodinated orexin A on CHO cell membranes; design: expressed in transfected cells; host or cells: CHO cells (membranes); conditions: human orexin 2 receptors in CHO cell membranes, 100 pM ligand, 30 minutes at 25° C., read-out: IC50 OX 2
T1 sequence (O43614 1-444): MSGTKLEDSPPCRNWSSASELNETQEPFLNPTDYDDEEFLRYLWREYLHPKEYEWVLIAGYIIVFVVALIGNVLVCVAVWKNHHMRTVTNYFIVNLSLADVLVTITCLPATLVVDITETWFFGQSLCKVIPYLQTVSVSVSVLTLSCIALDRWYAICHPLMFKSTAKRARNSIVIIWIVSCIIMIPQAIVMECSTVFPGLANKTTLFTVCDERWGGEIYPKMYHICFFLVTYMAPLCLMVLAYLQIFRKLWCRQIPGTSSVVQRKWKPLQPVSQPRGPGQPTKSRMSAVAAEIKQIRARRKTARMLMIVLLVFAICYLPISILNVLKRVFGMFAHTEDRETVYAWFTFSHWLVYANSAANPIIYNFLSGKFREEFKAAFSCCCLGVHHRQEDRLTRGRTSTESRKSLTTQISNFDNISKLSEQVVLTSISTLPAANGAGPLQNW
Method: (§1) They were in particular tested as regards their effects. […] This method consists in studying the displacement of radio-iodinated orexin A bound to human orexin 2 receptors expressed in CHO cells. The test is performed on membranes in a Hepes 50 mM, MgCl2 1 mM, CaCl2 25 mM, NaN3 0.025%, bovine serum albumin (BSA) 1% incubation buffer and 100 pM of ligand, for 30 minutes at 25° C. The reaction is quenched by filtration and washing on a Whatman GF/C filter. The non-specific binding is measured in the presence of 10^−6M of human orexin B. The IC50 values (concentration that inhibits 50% of the binding of the radio-iodinated orexin A to its receptors) are low, less than 300 nM, in particular less than 100 nM and more particularly less than 30 nM.

orexin 2 receptors [2] = biological target: T1, orexin 2 receptors; assay: measurement of intracellular calcium (FLIPR), antagonist test against orexin B; type: cell-based; conditions: 30 minutes preincubation before addition of 0.25 nM orexin B, Fluo-4 AM, read-out: Measurement of [Ca^2+]i IC50 OX 2 - FLIPR
Method: The agonist or antagonist nature of the compounds is determined in vitro in a test of measurement of intracellular calcium (FLIPR) on a cell preparation expressing the orexin 2 receptors, according to the general technique described in Sullivan et al., Methods Mol. Biol., 1999, vol. 114, 125-133, using 1 μM of Fluo-4 AM as fluorescent calcium indicator.

human orexin 1 receptors = biological target: T2, human orexin 1 receptors (Homo sapiens, UniProt O43613); assay: in vitro binding: displacement of radio-iodinated orexin A on CHO cell membrane preparation; conditions: membrane preparation of CHO cells expressing human orexin 1 receptors, read-out: IC50 OX 1
T2 construct: expressed in transfected cells; host or cells: CHO cells (membrane preparation)
T2 sequence (O43613 1-425): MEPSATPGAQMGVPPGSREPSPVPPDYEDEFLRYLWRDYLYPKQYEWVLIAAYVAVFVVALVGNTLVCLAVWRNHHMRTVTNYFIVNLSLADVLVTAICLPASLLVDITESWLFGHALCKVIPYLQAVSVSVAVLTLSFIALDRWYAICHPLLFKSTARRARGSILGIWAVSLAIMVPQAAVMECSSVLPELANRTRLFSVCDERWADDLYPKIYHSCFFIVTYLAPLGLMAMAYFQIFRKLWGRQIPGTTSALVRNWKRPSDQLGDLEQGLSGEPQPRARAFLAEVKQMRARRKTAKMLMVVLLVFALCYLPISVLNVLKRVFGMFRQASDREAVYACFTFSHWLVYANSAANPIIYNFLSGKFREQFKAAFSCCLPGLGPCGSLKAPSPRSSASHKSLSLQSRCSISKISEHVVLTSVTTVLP
Method: as §1, with “nM. The affinity of the compounds according to the invention for the orexin 1 receptors was also studied in a test of in vitro binding according to the same technique using radio-iodinated orexin A as ligand in a membrane preparation of CHO cells expressing the human orexin 1 receptors. The compounds according to the invention show little or no affinity for the orexin 1 receptors.” for “nM.”

`CCOC(=O)CN(c1ccc(Cl)cc1C(O)c1ccccc1Cl)S(=O)(=O)c1ccc(OC)c(OC)c1` (centres unmarked) [Compound 1, Ethyl N-{4-chloro-2-[(2-chlorophenyl)(hydroxy)methyl]phenyl}-N-[(3,4-dimethoxyphenyl)sulfonyl]glycinate] showed an IC50 (orexin 2 receptors [1]) of 13 nM, an IC50 (orexin 2 receptors [2]) of 5 nM and an IC50 (human orexin 1 receptors) of 0.446 µM.

`COc1ccc(S(=O)(=O)N(Cc2nnn(C)n2)c2ccc(Cl)cc2C(O)c2ccccc2Cl)cc1OC` (centres unmarked) [Compound 14, N-{4-chloro-2-[(2-chlorophenyl)(hydroxy)methyl]phenyl}-3,4-dimethoxy-N-[(2-methyl-2H-tetrazol-5-yl)methyl]benzenesulfonamide] gave a melting point of 94.8 °C.

`COC(=O)CN(c1ccc(Cl)cc1C(O)c1ccccc1Cl)S(=O)(=O)c1ccc(OC)c(OC)c1` (centres unmarked) [Compound 21, Methyl N-{4-chloro-2-[(2-chlorophenyl)(hydroxy)methyl]phenyl}-N-[(3,4-dimethoxyphenyl)sulfonyl]glycinate] gave a melting point of 158.5 °C.

In the case of `Cc1ccc(S(=O)(=O)N(CC(N)=O)c2ccc(Cl)cc2C(O)c2ccccc2Cl)cc1C` (centres unmarked) [Compound 28, N^2-{4-chloro-2-[(2-chlorophenyl)(hydroxy)methyl]phenyl}-N^2-[(3,4-dimethylphenyl)sulfonyl]glycinamide], the IC50 (orexin 2 receptors [1]) is reported as 62 nM, the IC50 (orexin 2 receptors [2]) is reported as 19 nM and the IC50 (human orexin 1 receptors) is reported as 1.5 µM.

Compound `COc1cccc(S(=O)(=O)N(CC(N)=O)c2ccc(Cl)cc2C(O)c2ccccc2Cl)c1` (centres unmarked) [Compound 30] has an IC50 (orexin 2 receptors [1]) of 82 nM, an IC50 (orexin 2 receptors [2]) of 26 nM and an IC50 (human orexin 1 receptors) of 0.966 µM.

For `COc1ccc(S(=O)(=O)N(CC(N)=O)c2ccc(Cl)cc2C(O)c2cccc(Cl)c2)cc1OC` (centres unmarked) [Compound 44, N^2-{4-chloro-2-[(3-chlorophenyl)(hydroxy)methyl]phenyl}-N^2-[(3,4-dimethoxyphenyl)sulfonyl]glycinamide], the IC50 (orexin 2 receptors [1]) was 85 nM, the IC50 (orexin 2 receptors [2]) was 54 nM and the IC50 (human orexin 1 receptors; unit μM) was > 10 µM.

Compound `COc1ccc(S(=O)(=O)N(CC(N)=O)c2ccc(Cl)cc2N(C)c2ccccc2)cc1OC` [Compound 92, N^2-{4-chloro-2-[methyl(phenyl)amino]phenyl}-N^2-[(3,4-dimethoxyphenyl)sulfonyl]glycinamide] has a melting point of 192.5 °C.

Compound `COc1ccc(S(=O)(=O)N(Cc2nccn2C)c2ccc(Cl)cc2Cc2ccccc2Cl)cc1OC` [Compound 107, N-[4-chloro-2-(2-chlorobenzyl)phenyl]-3,4-dimethoxy-N-[(1-methyl-1H-imidazol-2-yl)methyl]benzenesulfonamide] has an IC50 (orexin 2 receptors [1]) of 20 nM, an IC50 (orexin 2 receptors [2]) of 11 nM and an IC50 (human orexin 1 receptors) of 0.899 µM.

For `CNC(=O)CN(c1ccc(Cl)cc1N(C)c1ccccc1)S(=O)(=O)c1ccc(OC)c(OC)c1` [Compound 124, N^2-{4-chloro-2-[methyl(phenyl)amino]phenyl}-N^2-[(3,4-dimethoxyphenyl)sulfonyl]-N^1-methylglycinamide], the IC50 (orexin 2 receptors [1]) was 50 nM, the IC50 (orexin 2 receptors [2]) was 65 nM and the IC50 (human orexin 1 receptors; unit μM) was > 10 µM.

With `CNC(=O)CN(c1ccc(Cl)cc1C(O)c1ccccc1)S(=O)(=O)c1ccc(OC)c(OC)c1` (centres unmarked) [Compound 137, N^2-{4-chloro-2-[hydroxy(phenyl)methyl]phenyl}-N^2-[(3,4-dimethoxyphenyl)sulfonyl]-N^1-methylglycinamide] the IC50 (orexin 2 receptors [1]) was 19 nM, the IC50 (orexin 2 receptors [2]) was 10 nM and the IC50 (human orexin 1 receptors; unit μM) was > 10 µM.

With `COc1ccc(N(CC(N)=O)S(=O)(=O)c2ccc(OC)c(OC)c2)c(Cc2ccccc2Cl)c1` [Compound 138, N^2-[2-(2-Chlorobenzyl)-4-methoxyphenyl]-N^2-[(3,4-dimethoxyphenyl)sulfonyl]glycinamide] the IC50 (orexin 2 receptors [1]) was 8 nM, the IC50 (orexin 2 receptors [2]) was 11 nM and the IC50 (human orexin 1 receptors) was 4.76 µM. The melting point was 184.6 °C.

Work on `COc1ccc(S(=O)(=O)N(Cc2nnnn2C)c2ccc(Cl)cc2Cc2c(F)cccc2F)cc1OC` [Compound 152, N-[4-chloro-2-(2,6-difluorobenzyl)phenyl]-3,4-dimethoxy-N-[(1-methyl-1H-tetrazol-5-yl)methyl]benzenesulfonamide] yielded a melting point of 180.8 °C.

Work on `COc1ccc(S(=O)(=O)N(CC(N)=O)c2cc(Cl)ccc2Cc2ccccc2Cl)cc1OC` [Compound 179, N^2-[5-Chloro-2-(2-chlorobenzyl)phenyl]-N^2-[(3,4-dimethoxyphenyl)sulfonyl]glycinamide] yielded a melting point of 86.4 °C.

With `CNC(=O)CN(c1ccc(Cl)cc1C(C)c1ccccc1Cl)S(=O)(=O)c1ccc(OC)c(OC)c1` (centres unmarked) [Compound 187, N^2-{4-chloro-2-[1-(2-chlorophenyl)ethyl]phenyl}-N^2-[(3,4-dimethoxyphenyl)sulfonyl]-N^1-methylglycinamide] the melting point was 151 °C.

With `COc1ccc(S(=O)(=O)N(CC(N)=O)c2cc(N(C)C)ccc2Cc2c(F)cccc2F)cc1OC` [Compound 202, N^2-[2-(2,6-difluorobenzyl)-5-(dimethylamino)phenyl]-N^2-[(3,4-dimethoxyphenyl)sulfonyl]glycinamide] the IC50 (orexin 2 receptors [1]) was 9 nM, the IC50 (orexin 2 receptors [2]) was 7 nM and the IC50 (human orexin 1 receptors) was 1.87 µM.

`COc1ccc(S(=O)(=O)N(CC(N)=O)c2c(OC)cccc2-c2ccccc2)cc1OC` [Compound 312, N˜2˜-[(3,4-dimethoxyphenyl)sulfonyl]-N˜2˜-(3-methoxybiphenyl-2-yl)glycinamide] showed a melting point of 86.8 °C.

— US7396958B2, “Sulphonamide derivatives, their preparation and their therapeutic application” (Sanofi Aventis, priority 2004, dated 2008)
